One series is described as follows: in vitro. Conditions: human, hela cells, % viability.
One may read the viability as a read-out of living cells in per cent, often relative to untreated cells. As to `CCOC(=O)c1c(NC(=O)CN2CCCCC2)sc2c1CCCC2O` (stereo not drawn) [CBK261644], the viability at 28.5 h, 10 µM turned out to be 90.5%.

On to `CCN(CC)CC(=O)Nc1sc2c(c1C#N)CCCC2` [CBK261646], for which the viability at 28.5 h, 10 µM is 102%.

`COc1ccccc1NC(=O)/C(=C\c1cccnc1)NC(=O)c1ccccc1` [CBK261649]: the viability at 28.5 h, 10 µM was determined as 89.6%.

On to `O=C(O)/C=C/c1cccc(/C=C/C(=O)O)c1` [CBK261650], for which the viability at 28.5 h, 10 µM stood at 89.9%.

For `c1ccc(C[n+]2cn3cc(-c4ccccc4)nc3[n-]2)cc1` [CBK261654], the viability at 28.5 h, 10 µM worked out at 94%.

Take `COc1ccc(OC(=O)c2cc(S(=O)(=O)N3CCOCC3)ccc2Cl)cc1` [CBK261655]: the viability at 28.5 h, 10 µM amounted to 88.9%.

As to `C(=C/c1ccccc1)/C=N/c1ccc2nc(-c3ccc(/N=C/C=C/c4ccccc4)cc3)[nH]c2c1` [CBK261656], the viability at 28.5 h, 10 µM amounted to 87.9%.

As for `O=C(COC(=O)c1cc(S(=O)(=O)N2CCCCC2)ccc1Cl)c1ccccc1` [CBK261657], the viability at 28.5 h, 10 µM was 86%.

For `O=C(NNC(=O)c1ccccc1C(=O)O)c1cccc(Cl)c1` [CBK261658], the viability at 28.5 h, 10 µM is 94.7%.

For the molecule `Cc1ccc2nc(-c3ccc(/N=C/c4ccc(/C=N/c5ccc(-c6nc7ccc(C)cc7s6)cc5)cc4)cc3)sc2c1` [CBK261661], the viability at 28.5 h, 10 µM came out at 87.1%.

On to `O=C(NC1CCCCC1)c1cc(S(=O)(=O)N2CCOCC2)ccc1Cl` [CBK261662], for which the viability at 28.5 h, 10 µM came to 96%.

With `O=[N+]([O-])c1ccc2c(c1)nnn2CN1CCCCC1` [CBK261663], the viability at 28.5 h, 10 µM turned out to be 90.4%.

As to `Cc1ccc(S(=O)(=O)c2ccc(C)c(S(N)(=O)=O)c2)cc1S(N)(=O)=O` [CBK261664], the viability at 28.5 h, 10 µM turned out to be 83.6%.

For `COc1ccc(/C=C/C(=O)c2ccc(OC)cc2OC)c(OC)c1` [CBK261666], the viability at 28.5 h, 10 µM was 87.3%.

Turning to `O=C(N/N=C\c1cccs1)c1n[nH]c2c1CCCC2` [CBK261667], the viability at 28.5 h, 10 µM was 110%.

In the case of `Cc1ccc(S(=O)(=O)c2ccc(C)c(S(=O)(=O)N3CCOCC3)c2)cc1S(=O)(=O)N1CCOCC1` [CBK261677], the viability at 28.5 h, 10 µM is 94.1%.

Consider `O=[N+]([O-])c1ccccc1N/N=C/c1c[nH]c2ccccc12` [CBK261679], for which the viability at 28.5 h, 10 µM came out at 89.6%.

Turning to `O=C(CN1CCN(C(c2ccccc2)c2ccccc2)CC1)CN1C(=O)c2ccccc2C1=O` [CBK261682], the viability at 28.5 h, 10 µM worked out at 97.3%.

Turning to `Cn1c2c(c(=O)[nH]c1=O)C1(O)C(=O)c3ccccc3C1(O)N2` (stereo not drawn) [CBK261683], the viability at 28.5 h, 10 µM is 105%.

Regarding `CC(C)C(Nc1nc2ncn(Cc3ccccc3)c2c(=O)[nH]1)C(=O)O` (stereo not drawn) [CBK261685], the viability at 28.5 h, 10 µM was 91.2%.

For `CC1(C)CC(=O)C(=CNCCCn2ccnc2)C(=O)C1` [CBK261686], the viability at 28.5 h, 10 µM was 91.3%.

Consider `O=C(N/N=C/c1cccnc1)c1cccc(F)c1` [CBK261689], for which the viability at 28.5 h, 10 µM worked out at 101%.

Turning to `COc1cc(C(c2c(C)n(C)n(-c3ccccc3)c2=O)c2c(C)n(C)n(-c3ccccc3)c2=O)ccc1O` [CBK261690], the viability at 28.5 h, 10 µM came out at 110%.

Turning to `CC(=O)Nc1ccc(S(=O)(=O)NNC(=O)c2cccc(Cl)c2)cc1` [CBK261694], the viability at 28.5 h, 10 µM was 89.4%.

Regarding `O=C(O)C1CCCCC1C(=O)NCc1cccnc1` (stereo not drawn) [CBK261695], the viability at 28.5 h, 10 µM is 91.7%.

Regarding `O=C(N/N=C/c1ccccc1Cl)c1ccc(C(=O)N/N=C/c2ccccc2Cl)cc1` [CBK261698], the viability at 28.5 h, 10 µM is 108%.

As to `COc1ccc(CC(=O)NNC(=O)c2ccc(C(C)(C)C)cc2)cc1` [CBK261700], the viability at 28.5 h, 10 µM was 92.5%.

In the case of `NC(=NOC(=O)c1cccc(Br)c1)c1ccccc1` [CBK261703], the viability at 28.5 h, 10 µM was determined as 92.7%.

With `COc1cccc(C(=O)NNC(=O)c2ccc(F)cc2)c1` [CBK261705], the viability at 28.5 h, 10 µM amounted to 106%.

Turning to `O=C(NN=C1CCCCCCCCCCC1)c1cc2ccccc2cc1O` [CBK261706], the viability at 28.5 h, 10 µM was determined as 102%.

On to `C/C(=N\Nc1cc(-c2ccccc2)nc(C)n1)c1ccc(O)cc1` [CBK261710], for which the viability at 28.5 h, 10 µM was 87.9%.

Regarding `Fc1ccccc1/C=N/Nc1nccnc1Cl` [CBK261711], the viability at 28.5 h, 10 µM amounted to 87.8%.

`Cc1cc(NO)nc(-c2ccc(Br)cc2)n1` [CBK261713]: the viability at 28.5 h, 10 µM worked out at 97.6%.

In the case of `[O-][n+]1c2c([n+]([O-])c3c1CCCC3)CCCC2` [CBK261714], the viability at 28.5 h, 10 µM was 99.5%.

Take `Oc1ccc(C2N(O)C3CCCCC3N2O)cc1` (stereo not drawn) [CBK261715]: the viability at 28.5 h, 10 µM worked out at 92.8%.

Consider `Cc1c(Cl)c([N+](=O)[O-])nn1CC(=O)N1CCN(Cc2ccccc2)CC1` [CBK261720], for which the viability at 28.5 h, 10 µM stood at 89.8%.

Regarding `COc1ccc(-c2cc(-c3ccccc3)nc(N/N=C/c3ccc(O)c(C)c3O)n2)cc1` [CBK261721], the viability at 28.5 h, 10 µM was found to be 101%.

Take `O=[N+]([O-])c1cccc(/C=N/Nc2nc(-c3ccccc3)cc(-c3ccccc3O)n2)c1` [CBK261722]: the viability at 28.5 h, 10 µM turned out to be 95.8%.

With `NS(=O)(=O)c1ccc(Nc2ncccc2[N+](=O)[O-])cc1` [CBK261724], the viability at 28.5 h, 10 µM was 91.6%.

With `COc1ccc2c3c([nH]c2c1)C(C)N(CCC(=O)NN)CC3` (stereo not drawn) [CBK261726], the viability at 28.5 h, 10 µM is 93.2%.

Take `Cc1nc([N+](=O)[O-])c(SCC(O)CN2CCCCC2)[nH]1` (stereo not drawn) [CBK261727]: the viability at 28.5 h, 10 µM was 88.7%.

Consider `CN(C)CCN(C)Cc1ccc([N+](=O)[O-])cc1` [CBK261728], for which the viability at 28.5 h, 10 µM was 110%.

On to `CC1CCN(S(=O)(=O)c2cccc(S(=O)(=O)c3cccc(S(=O)(=O)N4CCC(C)CC4)c3)c2)CC1` [CBK261731], for which the viability at 28.5 h, 10 µM was 90%.

For the molecule `O=C(O)Cn1c2ccccc2c2cc([N+](=O)[O-])ccc21` [CBK261732], the viability at 28.5 h, 10 µM is 82.6%.

Regarding `Cc1ccc(S(=O)(=O)N2CCOCC2)cc1S(=O)(=O)N1CCOCC1` [CBK261733], the viability at 28.5 h, 10 µM stood at 90.8%.

In the case of `Cc1cc(C23CC4CC(CC(C(=O)O)(C4)C2)C3)c(C)cc1C12CC3CC(CC(C(=O)O)(C3)C1)C2` [CBK261734], the viability at 28.5 h, 10 µM was 112%.

As for `O=C(NC(=O)c1ccc2ccccc2c1)Nc1ccc(Br)cc1` [CBK261735], the viability at 28.5 h, 10 µM amounted to 107%.

As for `O=C(Nc1cccc(O)c1)c1ccc(Br)c(S(=O)(=O)N2CCCCC2)c1` [CBK261736], the viability at 28.5 h, 10 µM stood at 91.9%.

Take `O=C(CSc1nc2ccccc2[nH]1)c1ccc2ccccc2c1` [CBK261739]: the viability at 28.5 h, 10 µM was 104%.

Consider `Cc1ccc(S(=O)(=O)c2ccc(C)c(S(=O)(=O)N3CCC(C)CC3)c2)cc1S(=O)(=O)N1CCC(C)CC1` [CBK261743], for which the viability at 28.5 h, 10 µM came out at 95.8%.

With `O=C(CSc1nc(O)cc(=O)n1-c1ccccc1)c1ccccc1` [CBK261745], the viability at 28.5 h, 10 µM was found to be 103%.

Take `CC1(C)Cc2c(ccc3ccccc23)C(CCN2CCCCC2)=N1` [CBK261746]: the viability at 28.5 h, 10 µM amounted to 116%.

For `CC1CCCC(C)N1CC(O)COc1ccc(/N=C/c2ccccc2O)cc1` (stereo not drawn) [CBK261748], the viability at 28.5 h, 10 µM worked out at 89.6%.

As for `CC(C)(C)c1cc(CN2CCN(CCO)CC2)cc(C(C)(C)C)c1O` [CBK261753], the viability at 28.5 h, 10 µM was 95.4%.

Consider `O=[N+]([O-])c1ccccc1S(=O)(=O)N1CCN(c2ccccc2)CC1` [CBK261755], for which the viability at 28.5 h, 10 µM worked out at 85.8%.

In the case of `OCCN1CCN(Cc2cc(Br)cs2)CC1` [CBK261758], the viability at 28.5 h, 10 µM is 96%.

For `O=S(=O)(NC(c1ccccc1)c1ccccc1)c1ccc(Cl)cc1` [CBK261759], the viability at 28.5 h, 10 µM was determined as 104%.

On to `NNC(=O)c1cc(-c2ccc(-c3ccccc3)cc2)nc2ccc(Br)cc12` [CBK261760], for which the viability at 28.5 h, 10 µM stood at 104%.

For the molecule `O=C(Nc1ccccc1C(=O)O)c1ccc(Cl)c(S(=O)(=O)N2CCCCC2)c1` [CBK261763], the viability at 28.5 h, 10 µM was 113%.

Take `CC1CCCC(C)N1CC(O)COc1ccc(/N=C/c2ccccc2)cc1` (stereo not drawn) [CBK261764]: the viability at 28.5 h, 10 µM was 78.5%.

In the case of `Cc1cc(C)n2nc(C(=O)N/N=C/c3ccc(O)cc3)nc2n1` [CBK261765], the viability at 28.5 h, 10 µM is 85.4%.

As for `O=C(CCC(=O)Nc1ccc(F)cc1)N/N=C/c1ccc(O)cc1O` [CBK261766], the viability at 28.5 h, 10 µM is 112%.

Take `O=S(=O)(NCCCn1ccnc1)c1cc(Cl)ccc1Cl` [CBK261767]: the viability at 28.5 h, 10 µM amounted to 105%.

`O=C(O)c1cc(S(=O)(=O)NCc2ccccc2)ccc1Br` [CBK261768]: the viability at 28.5 h, 10 µM was 96.9%.

As to `Cc1ccc(S(=O)(=O)c2ccc(C)c(S(=O)(=O)N3CCCC3)c2)cc1S(=O)(=O)N1CCCC1` [CBK261772], the viability at 28.5 h, 10 µM turned out to be 78.9%.

For `CC1CCN(S(=O)(=O)c2ccc(Oc3ccc([N+](=O)[O-])cc3)cc2)CC1` [CBK261774], the viability at 28.5 h, 10 µM worked out at 98%.

Consider `O=C(N/N=C/c1ccc([N+](=O)[O-])cc1)c1ccccc1Cl` [CBK261775], for which the viability at 28.5 h, 10 µM was determined as 88.7%.

Consider `O=C(O)c1cc(-c2cccc(O)c2)nc2ccc(Br)cc12` [CBK261777], for which the viability at 28.5 h, 10 µM stood at 97.9%.

Turning to `O=C(c1ccc([N+](=O)[O-])cc1Cl)N1CCN(Cc2ccccc2)CC1` [CBK261778], the viability at 28.5 h, 10 µM came to 103%.

Regarding `Nc1ccccc1CC(c1c[nH]c2ccccc12)c1c[nH]c2ccccc12` [CBK261780], the viability at 28.5 h, 10 µM was determined as 103%.

For the molecule `CCOc1ccccc1OCC(=O)NN` [CBK261782], the viability at 28.5 h, 10 µM was 93.2%.

Turning to `CCN(CC)CCCCSc1ccc(O)cc1` [CBK261785C], the viability at 28.5 h, 10 µM stood at 95.7%.

For the molecule `O=C(Nc1cccc(-c2nc3ccccc3s2)c1)c1ccc(S(=O)(=O)N2CCCC2)cc1` [CBK261787], the viability at 28.5 h, 10 µM is 96.7%.

`O=C(O)/C=C/C(=O)NNC(=O)c1ccccc1O` [CBK261789]: the viability at 28.5 h, 10 µM is 97.4%.

Regarding `CCCOc1ccc(-c2cn(CC(=O)NN)cn2)cc1` [CBK261790], the viability at 28.5 h, 10 µM amounted to 106%.

For `Cc1ccc(C(=O)NNC(=O)c2ccc([N+](=O)[O-])cc2)cc1` [CBK261793], the viability at 28.5 h, 10 µM was 89.5%.

The series is the same for the next values; noted with them: human, hela cells, % viability, bulk resorufin, single well.
On to `COc1cc(/C=N/O)ccc1Oc1ccc([N+](=O)[O-])cc1[N+](=O)[O-]` [CBK261651], for which the viability at 28.5 h, 10 µM came out at 92.5%.

In the case of `O=C(NCCCn1ccnc1)c1cc([N+](=O)[O-])cc([N+](=O)[O-])c1` [CBK261773], the viability at 28.5 h, 10 µM worked out at 87.5%.

(Values after paper PMC12040169 (PLOS Biology, 2025).)
